Results on four molecules are retold here after paper PMC7991740, “Introduction of Non-natural Amino Acids Into T-Cell Epitopes to Mitigate Peptide-Specific T-Cell Responses” (Frontiers in Immunology, 2021).

Structures are written as SMILES. *1 amine or outer side, *2 acyl side, *3 side chain or, on linkers, in order; H or OH if unused. Where a SMILES comes first, the peptide text is derived from it. [ ]: non-standard residue; d: D form. X1 = NCCCC[C@@H](C(=O)[*:2])N(C[C@@H]1CCCN1)[*:1]

What all share (assay): biochemical
Holding throughout (assay type): binding

The target in one test is T1, HLA-DRB1*01:01 (Homo sapiens, UniProt P01903+P01911, A100R/D57E/F55L/F60I/F76Y/I96L/L162R/M171V/P40L/Q125E/R42F/V115G/Y59C).
T1 construct: Human leukocyte antigen-DR molecules were immunopurified from homozygous EBV B lymphoblastoid cells; endogenous in cells
Conditions: […]; mean of at least two independent experiments; read-out: IC50 DRB1*0101.

Another test has as its target T2, HLA-DRB1*04:01 (Homo sapiens, UniProt P01903+P01911, A100K/A169T/F76Y/I96L/K127E/L162R/M171V/N62H/P40V/Q125Y/R42H/S133A/S149N/S66Y/V115G/V209L/W38E).
T2 construct: Human leukocyte antigen-DR molecules were immunopurified from homozygous EBV B lymphoblastoid cells; endogenous in cells
The note with it: […]; mean of at least two independent experiments; read-out: IC50 DRB1*0401.

A further test addresses HLA-DRB1*07:01 (Homo sapiens, UniProt P01903+P01911, A100R/A102G/A103Q/D57E/D86V/E43K/F76Y/K127E/L162R/M171V/P40G/Q125H/Q99D/R33Q/R42Y/R54Q/S133A/S66F/T210M/V115G/Y107V/Y59L/Y89S). Conditions: […]; mean of at least two independent experiments; read-out: IC50 DRB1*0701 (converted).
The target in the next test is HLA-DRB1*11:01 (Homo sapiens, UniProt P01903+P01911, A100R/A169T/A87E/I96F/K41T/L162R/M171V/P40S/Q125H/Q178H/Q39Y/Q99D/R42S/S66Y/T262R/V115G/W38E). Conditions: […]; mean of at least two independent experiments; read-out: IC50 DRB1*1101 (converted).
Chain of HLA-DRB1*11:01 (P01903 26-254 limits assumed, other chains not shown): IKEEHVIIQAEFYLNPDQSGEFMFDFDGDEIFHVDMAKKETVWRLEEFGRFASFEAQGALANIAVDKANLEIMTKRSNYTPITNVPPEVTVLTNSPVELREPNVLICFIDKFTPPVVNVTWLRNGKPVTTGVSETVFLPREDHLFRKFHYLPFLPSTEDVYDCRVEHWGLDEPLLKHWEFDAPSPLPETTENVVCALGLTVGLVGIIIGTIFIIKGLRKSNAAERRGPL
In the next test the target is T3, HLA-DRB5*01:01 (Homo sapiens, UniProt P01903+Q30154).
T3 construct: Human leukocyte antigen-DR molecules were immunopurified from homozygous EBV B lymphoblastoid cells; endogenous in cells
Conditions: […]; mean of at least two independent experiments; read-out: IC50 DRB5*0101.

A word on the IC50: it is the concentration at which inhibition is half-maximal.

`CC(C)C[C@H](NC(=O)[C@H](CCCCN)NC(=O)[C@H](CC(C)C)NC(=O)[C@@H](NC(=O)[C@H](CC(N)=O)NC(=O)[C@H](CCC(N)=O)NC(=O)[C@H](CCCCN)NC(=O)[C@@H](NC(=O)[C@H](Cc1ccc(O)cc1)NC(=O)[C@H](CCCCN)NC[C@@H]1CCCN1)C(C)C)[C@@H](C)O)C(=O)N[C@@H](C)C(=O)N[C@H](C(=O)O)[C@@H](C)O` [Rd1] (H-[X1]YVKQNTLKLAT-OH; N-terminus and C-terminus assumed): the IC50 on HLA-DRB1*01:01 was 2 nM; on HLA-DRB1*04:01, 25 nM; on HLA-DRB1*07:01, 140 nM; on HLA-DRB1*11:01, 2500 nM; on HLA-DRB5*01:01, 120 nM.

Take `CC(C)C[C@H](NC(=O)[C@H](CCCCN)NC(=O)[C@H](CC(C)C)NC(=O)[C@@H](NC(=O)[C@H](CC(N)=O)NC(=O)[C@H](CCC(N)=O)NC(=O)[C@H](CCCCN)NC(=O)[C@@H](NC(=O)[C@H](Cc1ccc(O)cc1)NC(=O)[C@H](CCCCN)NC(=O)[C@@H]1CCCN1)C(C)C)[C@@H](C)O)C(=O)N[C@@H](C)C(=O)NC(C)(C)C(=O)O` [Aib13]: the 50% inhibitory concentration (IC50) was 0.2 nM on HLA-DRB1*01:01; 6 nM at HLA-DRB1*04:01; 6 nM at HLA-DRB1*07:01; 8 nM at HLA-DRB1*11:01; 2 nM at HLA-DRB5*01:01.

Consider `CC(C)C[C@H](NC(=O)[C@H](CCCCN)NC(=O)[C@H](CC(C)C)NC(=O)[C@@H](NC(=O)[C@H](CC(N)=O)NC(=O)[C@H](CCC(N)=O)NC(=O)[C@H](CCCCN)NC(=O)[C@@H](NC(=O)C(C)(C)NC(=O)[C@H](CCCCN)NC(=O)[C@@H]1CCCN1)C(C)C)[C@@H](C)O)C(=O)N[C@@H](C)C(=O)N[C@H](C(=O)O)[C@@H](C)O` [Aib3], for which the IC50 at HLA-DRB1*01:01 is 60 nM; on HLA-DRB1*04:01, over 100000 nM; on HLA-DRB1*07:01 it was 460 nM; at HLA-DRB1*11:01 it was over 100000 nM; at HLA-DRB5*01:01, over 10000 nM.

On to `CC(C)C[C@H](NC(=O)[C@H](CCCCN)NC(=O)[C@H](CC(C)C)NC(=O)[C@@H](NC(=O)[C@H](CC(N)=O)NC(=O)[C@H](CCC(N)=O)NC(=O)[C@H](CCCCN)NC(=O)[C@@H](NC(=O)[C@H](Cc1ccc(O)cc1)NC(=O)[C@H](CCCCN)NC(=O)[C@@H]1CCCN1)C(C)C)[C@@H](C)O)C(=O)NC(C)(C)C(=O)N[C@H](C(=O)O)[C@@H](C)O` [Aib12], for which the IC50 on HLA-DRB1*01:01 was 0.7 nM; on HLA-DRB1*04:01 it was 32 nM; on HLA-DRB1*07:01, 9 nM; on HLA-DRB1*11:01 it was 100 nM; on HLA-DRB5*01:01, 5 nM.
